From ChEMBL document CHEMBL3988442, “University of Dundee, Small-Polar-MMV Screening Library” (2021)

Key:
[1] = microbe, parasite or virus in culture; conditions: Mycobacterium tuberculosis, 96 h, read-out: pIC50 (converted)
[2] = microbe, parasite or virus in culture; conditions: Mycobacterium tuberculosis, 72 h, read-out: pIC50 (converted)

| Compound | IC50 [1] | IC50 [2] |
| --- | --- | --- |
| COC(=O)c1ccc(-c2noc(CN(CCO)Cc3cccs3)n2)cc1 | > 50.1 µM | 47.5 µM |
| COc1cc(Oc2cnc3ccccc3n2)ccc1CN1CCCC1 | 13 µM | 9.42 µM |
| COc1cccc(CCC2CCCN(C(=O)c3ccc(OC)o3)C2)c1 (centres undefined) | 23 µM | 27.7 µM |
| Fc1ccc(Cn2ncc3c2CN(c2noc(C4CC4)n2)C3)cc1 | 26.5 µM | > 50.1 µM |
| COc1coc(CN2CCCC(CCc3ccc(F)c(F)c3)C2)cc1=O (centres undefined) | 14.3 µM | > 50.1 µM |
| O=C(O)c1cc(-c2ccoc2)cc(S(=O)(=O)NC2CC2)c1 | > 50.1 µM | > 50.1 µM |
| Cc1ccc(CCNc2ncc(C)c(-c3ccnn3C)n2)s1 | > 50.1 µM | 11.2 µM |
| COc1ccc(-c2noc(CN3CCN(c4cnccn4)CC3)n2)cc1 | 33.8 µM | 47 µM |
| Cc1nnsc1CN1C[C@H]2CC[C@@H]1CN(Cc1ccccc1)C2 | 42.5 µM | 13.8 µM |
| CCc1ccccc1OC1CN(C(=O)c2ccsc2)C1 | > 50.1 µM | 8.19 µM |
| CCN(CC)CCn1cnc(-c2ccccc2)c1-c1ncc[nH]1 | 27.2 µM | > 50.1 µM |
| Cc1cccc(CN2C[C@H]3CC[C@@H]2CN(Cc2[nH]cnc2C)C3)n1 | > 50.1 µM | > 50.1 µM |
| O=C(c1cccs1)N1CC(Oc2ccccc2Cl)C1 | 42.8 µM | 26.7 µM |
| Cc1nc(N(C)C/C=C/c2ccccc2)c2cnn(C)c2n1 | > 50.1 µM | > 50.1 µM |
| COc1cccc2c1OCC(C(=O)N1CCN(C3CCCC3)C(=O)C1)C2 (centres undefined) | > 50.1 µM | > 50.1 µM |
| CCOc1ccc(OCc2nccc(-c3cc(C(=O)O)ccn3)n2)cc1 | > 50.1 µM | > 50.1 µM |
| COc1ccc(F)c(-c2cc(C(=O)NC3CC3)ccn2)c1 | 10.6 µM | 22.7 µM |
| COc1cc(Oc2ncccc2C(F)(F)F)ccc1CN1CCCC1 | 21 µM | > 50.1 µM |
| Cc1nn(C)c2ncnc(N(C)CC3CCN(CC(C)C)C3)c12 (centres undefined) | > 50.1 µM | > 50.1 µM |
| CCc1cc(N(C)Cc2ccncn2)n2nc(C)c(C)c2n1 | 14.2 µM | 33.8 µM |
| CCN(Cc1cnn(C)c1)C[C@H]1CC[C@@H](Cc2cccc(CN)c2)O1 | > 50.1 µM | > 50.1 µM |
| Cc1cc(N(C)Cc2ccsc2)n2nc(C)c(C)c2n1 | 12.6 µM | 12.6 µM |
| Cc1cccc(CN2CCCC3(CCN(C4CCSCC4)C3)C2=O)c1 (centres undefined) | 15.8 µM | 10 µM |

| Compound | IC50 [1] | IC50 [2] |
| --- | --- | --- |
| C=Cc1ccc(C(=O)N2CCCC(Nc3ccc(F)c(F)c3)C2)cc1 (centres undefined) | 40.8 µM | > 50.1 µM |
| CCOc1ccnc(N[C@@H](Cc2ccccc2)C(N)=O)n1 | > 50.1 µM | > 50.1 µM |
| CCCc1nc(N2CC[C@@H](c3ccc4c(c3)OCO4)[C@H](O)C2)no1 | > 50.1 µM | 44.3 µM |
| c1cc(-c2ccn(CCN3CCCC3)n2)cc(-c2nccs2)c1 | 27.4 µM | 43.6 µM |
| Cc1ccccc1OCC1CCCN(c2cc(N)nc(N)n2)C1 (centres undefined) | 30.1 µM | 35.7 µM |
| O=C(c1cc(COc2ccc3c(c2)OCO3)[nH]n1)N1CCCCO1 | 17.8 µM | > 50.1 µM |
| COc1coc(CN2CCCC(CCc3ccc(F)cc3)C2)cc1=O (centres undefined) | 23.1 µM | > 50.1 µM |
| Cc1nc(-c2cccc(N3CCC(N4CCCC4)CC3)c2)cs1 | 24.2 µM | > 50.1 µM |
| CS(=O)(=O)N1CCc2[nH]cnc2C12CCN(C(=O)c1ccccc1)CC2 | > 50.1 µM | > 50.1 µM |
| Cc1cccnc1CN1CCOC(Cc2cccc3ccccc23)C1 (centres undefined) | > 50.1 µM | > 50.1 µM |
| COc1ccc(F)c(CN2CCCC3(CCN(C4CCOCC4)C3)C2)c1 (centres undefined) | 25.1 µM | 16.7 µM |
| CC(C)N(CCNc1nc(C2CCCC2)nc2c1cnn2C)C(C)C | 18.7 µM | 20.6 µM |
| O=C(c1ncoc1C1CC1)N1CCCN(CCCc2ccccc2)CC1 | > 50.1 µM | > 50.1 µM |
| COc1cccc(-c2noc(-c3ccc(NCC(C)O)nc3)n2)c1OC (centres undefined) | 19.4 µM | > 50.1 µM |
| Fc1ccccc1OC1CCN(CCn2cc3ccccc3n2)CC1 | 47.9 µM | > 50.1 µM |
| O=C(CCC(F)(F)F)N1CCCC(CO)(CC2CC2)C1 (centres undefined) | 4.11 µM | 2.54 µM |
| Cc1nn2c(NCC(=O)NC3CC3)cc(-c3ccccc3)nc2c1C | 12.1 µM | 13.4 µM |
| CC(C)N1CC2(CCCN(Cc3noc(C4CCCC4)n3)C2)CCC1=O (centres undefined) | > 50.1 µM | > 50.1 µM |
| CCCn1cnnc1-c1nc2c([nH]1)CC(c1ccc(Cl)cc1)CNC2=O (centres undefined) | 14.2 µM | 17.5 µM |
| Cc1cnc(NC(C)Cc2cccnc2)nc1N(C)C (centres undefined) | > 50.1 µM | > 50.1 µM |
| Cc1ccsc1[C@@H]1CCN(C(=O)CCOc2ccccc2)C[C@H]1O | > 50.1 µM | > 50.1 µM |
| COc1cc(-c2cccc3c2OC(CN)C3)cc(OC)c1OC (centres undefined) | 43.9 µM | 43.9 µM |
| Cc1nc(N)cc(N2CCCC(COc3cccc(F)c3)C2)n1 (centres undefined) | 27.9 µM | 46 µM |

| Compound | IC50 [1] | IC50 [2] |
| --- | --- | --- |
| Fc1cccc(OC2CCN(CCn3cc4ccccc4n3)CC2)c1 | 26.1 µM | > 50.1 µM |
| CCCC1C=CCN1C(=O)c1cc(COc2ccc3c(c2)OCO3)[nH]n1 (centres undefined) | 11.8 µM | > 50.1 µM |
| Cc1nn(C)c(C)c1CN(CCO)C(=O)C1COc2ccccc2C1 (centres undefined) | > 50.1 µM | > 50.1 µM |
| COc1cccc(-c2noc3c2CN(c2nc(C)ncc2C)CC3)c1 | 34.5 µM | 3.39 µM |
| COc1coc(CN2CCCC(CCc3ccccc3F)C2)cc1=O (centres undefined) | 13.3 µM | 47.3 µM |
| COc1ccc([C@@H]2C[C@H](NC(C)=O)C[C@H](Cc3ccccc3)O2)cn1 | 28.3 µM | > 50.1 µM |
| CCc1ccc(C(=O)N2CCN(Cc3ccc(F)cc3)CC2)s1 | 28.4 µM | 19.9 µM |
| Cc1ccc(CN2CCN(C(=O)c3ccc(Br)o3)CC2)cc1 | 37.2 µM | 30.4 µM |
| COc1ccc(-c2nc(CN(C)Cc3nncn3C)c(C)o2)c(C)c1C | 10.1 µM | 42.9 µM |
| Cc1ccccc1N1CCN(c2cc(N(C)C)ncn2)C(C)C1 (centres undefined) | > 50.1 µM | > 50.1 µM |
| CCNc1ccnc(N2Cc3cnn(Cc4ccc(F)cc4)c3C2)n1 | 27.4 µM | > 50.1 µM |
| Cc1cccnc1CN(C)C(C(=O)O)c1ccc(-n2cccn2)cc1 (centres undefined) | 20.1 µM | 27 µM |
| CC(C)c1cc(N(C)Cc2noc(C3CCCC3)n2)n2nccc2n1 | 15.5 µM | 9.63 µM |
| CC(=O)Nc1cccc(-c2ccccc2CCN)c1 | > 50.1 µM | 49.7 µM |
| CCNc1ncc(C(=O)N2CCC(c3ccccc3C(=O)O)C2)cn1 (centres undefined) | > 50.1 µM | > 50.1 µM |
| CCn1cncc1CNc1ccc(-c2nc(CC(C)C)no2)cn1 | 5.92 µM | > 50.1 µM |
| Cc1ccc2nc(C3CCCN3Cc3nnc(C)s3)[nH]c2c1 (centres undefined) | > 50.1 µM | > 50.1 µM |
| Cc1nc(O)cc(CCNC(=O)C2CC(=O)N(CC(C)C)C2)n1 (centres undefined) | > 50.1 µM | > 50.1 µM |
| Cc1cc(=O)[nH]c(SC(C)C(=O)N2CCC(NS(C)(=O)=O)CC2)n1 (centres undefined) | > 50.1 µM | > 50.1 µM |
| COc1ccc(CN2CCCC(Nc3cccc(F)c3)C2)cc1O (centres undefined) | 16.5 µM | 11 µM |
| CC(C)c1cc(CN2CCNCC2)no1 | > 50.1 µM | 32.6 µM |
